The source of these data is article PMC9532399, “The lysosomal transporter TAPL has a dual role as peptide translocator and phosphatidylserine floppase” (Nature Communications, 2022).

The target in test [1] is T1, TAPL Y405A mutant (Mus musculus, UniProt Q9JJ59, Y405A).
T1 construct: thrombin cleavage site (C); eGFP (C); 10XHis (C); made in house; host or cells: Trichoplusia ni High Five (Hi5) insect cells, baculovirus (pVL1393)
T1 sequence (Q9JJ59 143-762 Y405A): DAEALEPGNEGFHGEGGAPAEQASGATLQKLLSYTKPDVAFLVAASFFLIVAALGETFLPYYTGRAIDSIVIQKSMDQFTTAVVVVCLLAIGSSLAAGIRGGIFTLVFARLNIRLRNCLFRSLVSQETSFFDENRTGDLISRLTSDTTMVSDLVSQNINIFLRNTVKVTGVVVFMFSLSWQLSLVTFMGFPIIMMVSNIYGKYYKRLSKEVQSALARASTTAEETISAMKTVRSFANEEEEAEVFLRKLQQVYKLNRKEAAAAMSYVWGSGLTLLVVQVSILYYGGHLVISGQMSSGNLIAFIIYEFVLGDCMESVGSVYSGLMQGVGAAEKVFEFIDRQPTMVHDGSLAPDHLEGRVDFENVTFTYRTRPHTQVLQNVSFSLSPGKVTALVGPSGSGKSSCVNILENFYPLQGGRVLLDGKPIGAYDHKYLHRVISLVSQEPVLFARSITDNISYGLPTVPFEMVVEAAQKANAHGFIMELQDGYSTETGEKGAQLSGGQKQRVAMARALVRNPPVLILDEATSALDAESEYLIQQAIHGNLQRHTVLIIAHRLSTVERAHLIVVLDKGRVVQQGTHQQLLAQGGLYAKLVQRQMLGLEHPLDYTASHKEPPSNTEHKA
Nature of the test: Peptide transport assay, Y405A. The conditions noted are these: 9-mer 10 mM (sic), 3 mM ATP. The class given is biochemical. On the procedure: (§1) Proteoliposomes for peptide transport assays were prepared according to the protocol of Zhao et al., with some modifications. Briefly, E. coli polar lipid extract dissolved in chloroform was dried under a gentle stream of nitrogen. The thin film of lipids was placed under a desiccator overnight to completely remove residual chloroform and then hydrated in 1X PBS buffer pH 7.4 (137 mM NaCl, 2.7 mM KCl, 8 mM Na2HPO4, and 2 mM KH2PO4) with 10 mM MgCl2 and 5% (v/v) glycerol. After water bath sonication at 22 °C for 5 min (Powersonic 610, KLEENTEK), the lipid solution was extruded using a Mini-Extruder equipped with a polycarbonate membrane filter (200 nm pore) (Avanti Polar Lipids, Inc.) to obtain unilamellar vesicles, which were destabilized with 0.36% (w/v) DM. The DM-purified protein and lipid suspension were mixed in a 1:50 (w/w) ratio. After incubation at 4 °C for 2 h, the mixture was treated with Bio-Beads SM-2 resin (60 and 120 mg, see above) at 4 °C for a total of 18 h to remove detergent. The proteoliposomes were collected by centrifugation at 200,000×g for 1.5 h at 4 °C and resuspended in the buffer described above.
(§2) The peptide transport activity of ΔTMD0 was measured as described previously. Briefly, 50 μL of ΔTMD0-loaded proteoliposomes (~0.6 μg protein) were added into 200 μL reaction buffer containing 1X PBS pH 7.4, 3 mM ATP, and 10 mM MgCl2 in the presence or absence of 10 μM 5-IAF-labeled peptides. To investigate transport activity, the mixture was incubated at 37 °C for 10 min. The reaction was terminated by incubating the mixture for 20 min on ice. Proteoliposomes were collected by centrifugation at 200,000×g for 30 min and then washed twice with 1X PBS. The proteoliposomes were completely disrupted by adding 10% (w/v) SDS solution (final concentration, 2%). The transported peptide was measured using a microplate reader (Gemini XPS) with excitation at 485 nm and emission at 520 nm.

Test [2] has as its target T2, mouse TAPL ΔTMD0 (Mus musculus, UniProt Q9JJ59).
T2 construct: thrombin cleavage site (C); eGFP (C); 10XHis (C); made in house; host or cells: Trichoplusia ni High Five (Hi5) insect cells, baculovirus (pVL1393)
T2 sequence (Q9JJ59 143-762): T1 sequence (Q9JJ59 143-762 Y405A) with A263Y
Nature of the test: Peptide transport assay, ΔTMD0 proteoliposomes. The conditions noted are these: for Transport activity: peptide 10 mM (sic). The test is classed as biochemical. The procedure:
as §1, §2

The subject of test [3] is TAPL E456A mutant. Nature of the test: Peptide transport assay, E456A. The class given is biochemical, mouse. The conditions noted are these: 9-mer 10 mM (sic), 3 mM ATP. On the procedure: as §1, §2
Test [4] deals with TAPL N301A mutant. Nature of the test: Peptide transport assay, N301A. The test is classed as biochemical, mouse. The conditions noted are these: 9-mer 10 mM (sic), 3 mM ATP. On the procedure:
as §1, §2

Where a chain is given by its changes, count along the chain named.

With “RRYQNSTC^5-IAFL [9-mer, 5-IAF-labeled peptide of 9 residues (RRYQNSTC^5-IAFL)]”, the Transport activity in test [1] (replicate I) was determined as 18.1424%; in test [1] (replicate II) it was 19.1407%; in test [1] (replicate III), 12.1153%; in test [1] (wild-type = 100%, mean n=3), 16.4661%; in test [2] (+ 3 mM ATP, 9-mer + ATP set at 100%, 37 °C 10 min, mean n=3) it was 100%; in test [2] (+ 3 mM ATP, replicate I), 101.702%. For the same substance, the Transport activity in test [2] (+ 3 mM ATP, replicate II) is 98.4079%; in test [2] (+ 3 mM ATP, replicate III) it was 99.8902%; in test [2] (no ATP, 9-mer + ATP set at 100%, mean n=3), 5.331%; in test [2] (no ATP, replicate I), 5.213%; in test [2] (no ATP, replicate II), 5.414%; in test [2] (no ATP, replicate III), 5.365%. In addition, the Transport activity in test [3] (replicate I) turned out to be 48.9147%; in test [3] (replicate II) it was 53.6761%; in test [3] (replicate III), 40.3825%; in test [3] (wild-type = 100%, mean n=3), 47.6578%; in test [4] (replicate I), 112.671%; in test [4] (replicate II), 153.066%. Further, the Transport activity in test [4] (replicate III) is recorded as 131.453%; in test [4] (wild-type = 100%, mean n=3) it was 132.396%. Further, the “peptide transport” value in test [2] (ATP-dependent, 5-IAF-labeled peptides) is given as “preferentially transported”.
